Test [1] addresses Vasopressin V2 receptor (Sus scrofa) (UniProt P32307). The test can be described thus: Vasopressin V2 receptor binding affinity measured by competition with tritiated LVP lysine vasopressin in pig renal medullary preparation. As to conditions: Renal medulla.
The target of test [2] is Vasopressin V2 receptor (Sus scrofa, UniProt P32307). The test can be described thus: Inhibition of LVP-sensitive adenylate cyclase in a pig renal medullary preparation. It counts as tissue-based, Renal medulla.
Chain of Vasopressin V2 receptor (P32307 whole entry): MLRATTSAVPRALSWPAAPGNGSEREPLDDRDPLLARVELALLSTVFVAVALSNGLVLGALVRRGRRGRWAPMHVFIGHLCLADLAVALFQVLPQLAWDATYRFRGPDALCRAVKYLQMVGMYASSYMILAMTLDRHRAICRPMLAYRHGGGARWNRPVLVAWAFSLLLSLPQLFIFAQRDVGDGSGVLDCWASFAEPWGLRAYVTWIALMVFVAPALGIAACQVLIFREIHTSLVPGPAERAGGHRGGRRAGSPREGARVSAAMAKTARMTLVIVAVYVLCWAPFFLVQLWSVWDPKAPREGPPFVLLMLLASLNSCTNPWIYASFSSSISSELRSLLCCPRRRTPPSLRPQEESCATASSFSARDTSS

The structures appear in SMILES notation. Bridge positions count the residues as written; N and C are the ends. Square brackets hold non-standard residues; d marks the D form. Peptide text beside a SMILES is read from it. Mpa = O=C(O)CCS

Chain of Vasopressin V2 receptor (Sus scrofa) (P32307 whole entry): as above

What is called Ki is a measure of affinity in units of concentration, obtained from inhibition or displacement. A high value points to lower affinity. Molecule `CC(C)[C@@H]1NC(=O)[C@H](Cc2ccccc2)NC(=O)[C@H](Cc2ccccc2)NC(=O)CCSSC[C@@H](C(=O)N2CCC[C@H]2C(=O)N[C@@H](CCCN=C(N)N)C(=O)NCC(N)=O)NC(=O)[C@H](CC(N)=O)NC1=O` ([Mpa]FFVNCPRG-NH2; disulfide 1-6) showed a K bind in test [1] of 0.1 µM. Further, in test [2], the inhibition constant (Ki) was 0.01 µM.

On to `CC(C)[C@@H]1NC(=O)[C@H](Cc2ccccc2)NC(=O)[C@H](Cc2ccccc2)NC(=O)CCC[C@@H](C(=O)N2CCC[C@H]2C(=O)N[C@@H](CCCN=C(N)N)C(=O)NCC(N)=O)NC(=O)[C@H](CC(N)=O)NC1=O`, for which the K bind in test [1] came to 15 µM. Further, the affinity in test [2] corresponds to a Ki of 7 µM.

Molecule `CC(C)[C@@H]1NC(=O)[C@H](Cc2ccccc2)NC(=O)[C@H](Cc2ccccc2)NC(=O)CCC[C@H](C(=O)N2CCC[C@H]2C(=O)N[C@@H](CCCN=C(N)N)C(=O)NCC(N)=O)NC(=O)[C@H](CC(N)=O)NC1=O` gave a K bind in test [1] of 29 µM. In test [2], this molecule registered a Ki of 9.2 µM.

(Values after ChEMBL document CHEMBL1124075, “Design, synthesis, and biological activity of a peptide mimic of vasopressin” (J Med Chem, 1988).)
